Measured values: US5180720A, “2- and 3-alkoxy or hydroxy-8-substituted-dibenz[b,f]-[1,4]oxazepine-10(11H)-carboxylic acid, substituted hydrazides and methods for treating pain” (G. D. Searle & Co., priority 1991, dated 1993)
Entries after “also recorded” stand apart in the source; their conditions may differ. Blank lines part the entries; values can stand above or below the compound they belong to.

What was measured:
[1] = system: prostaglandins of the E series; conditions: cited from earlier work
[2] = system: mice; experiment: PBQ Writhing Assay (analgesic activity); format: in vivo, mouse (Charles River male albino mice); conditions: for rank order of potency in the Writhing Assay: PBQ writhing; for PBQ writhing assay, I.G. (activity): 30 mg/kg i.g.; for PBQ writhing assay, S.C. (activity): 30 mg/kg s.c.
Source text: The Writhing Assay is one of the most widely-used experimental procedures for measuring the analgesic activity of different narcotic and nonnarcotic analgesic agents, and involves the continuous, chemically-induced pain of visceral origin to an animal, such as a mouse or rat. [Gyires et al., Arch. int. Pharmacodyn, 267, 131-140 (1984); C. Vander Wende et al., Fed. Proc., 15, 494 (1956); Koster et al., Fed. Proc., 18, 412 (1959); and Witken et al., J. Pharmacol. exp. Ther., 133, 400-408 (1961).] Chemicals which may be used to induce this pain include phenylbenzoquinone (PBQ) and acetic acid. As a result of the chemical irritation to the animal, a characteristic stretching and writhing of the animal (dorsiflexion of the animal's back, extension of its hindlimbs and the strong contraction of its abdominal musculature) will generally occur. […] Drugs which reduce the number of writhes of the animal appear to restore the normal nociceptive threshold of the animal.
Charles River male albino mice, weighing 20 to 30 grams were used in this assay.
Thirty minutes after subcutaneous or intragastric administration to ten mice of 30 mg per kilogram of body weight of a compound of the present invention ("test compound"), […] per 10 g of body weight of a 0.025% w/v solution of PBQ was injected intraperitoneally into each mouse. Ten mice which were given saline in place of a test compound of the invention were used as a control group.
Five minutes later, each mouse was individually placed into a glass beaker for observation, and the number of writhes occurring during the following ten-minute period was counted.
A test compound was considered to have produced analgesia in a mouse if, in accordance with the conditions set forth above, and under the test criteria employed for this assay, after the administration of 30 mg per kilogram of body weight of a compound of the present invention to the mouse, the number of writhes elicited by a mouse injected with PBQ was equal to, or less than, one-half the median number of writhes recorded for the saline-treated control group of mice that day, as described by Taber in "Predictive Value of Analgesic Assays in Mice and Rats," Advances in Biochemical Psychopharmacology, 8, 191 (1974).
The standard initial screening dose of a test compound employed in this assay was 30 mg per kilogram of body weight for both routes of administration. If this initial screening dose of the test compound produced analgesia in seven out of ten mice, then the effect of additional doses of the test compound on the writhing response was evaluated, and then the ED50 dose was generally calculated. (The slopes of the dose-response curves for all test compounds analyzed were compared as described by Tallarida and Murray, Manual of Pharmacologic Calculations, Page 11 (Springer Verlag, N.Y., 1981)).

[3] = target: T1, prostaglandin E2-induced contractions of segments of guinea pig ileum (Cavia porcellus, UniProt A0A286XHJ6); experiment: Prostaglandin (PGE) Antagonism Assay, guinea pig ileum; format: cell-based; design: key to PGE antagonism in guinea pig ileum (activity): Active: A concentration of the test compound was determined to be "active" if it produced a dose ratio significantly greater than that obtained in a series of blank treatments
T1 construct: Segments of ileum about 2 cm long were then cut and mounted in a 10-mL tissue bath; from tissue; host or cells: ileum segments of male albino guinea pigs
T1 sequence (A0A286XHJ6 1-405): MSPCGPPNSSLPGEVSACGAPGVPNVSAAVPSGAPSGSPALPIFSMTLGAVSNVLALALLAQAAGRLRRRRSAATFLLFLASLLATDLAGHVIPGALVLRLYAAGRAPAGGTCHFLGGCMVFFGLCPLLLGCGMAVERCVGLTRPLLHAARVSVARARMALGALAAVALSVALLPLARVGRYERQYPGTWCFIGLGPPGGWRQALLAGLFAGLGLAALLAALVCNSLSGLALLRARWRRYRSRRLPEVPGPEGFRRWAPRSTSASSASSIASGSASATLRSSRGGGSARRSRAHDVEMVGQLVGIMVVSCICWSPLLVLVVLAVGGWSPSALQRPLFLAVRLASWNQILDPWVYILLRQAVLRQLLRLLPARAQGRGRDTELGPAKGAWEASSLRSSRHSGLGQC
Procedure: In order to determine the effectiveness of compounds of the invention ("test compounds") as prostaglandin E2 antagonists, a prostaglandin antagonism assay was conducted, as described below, to determine the ability of these compounds to inhibit prostaglandin E2 -induced contractions of segments of guinea pig ileum.
Male albino guinea pigs weighing 200 to 500 grams were sacrificed by cervical dislocation.
The ileums were then quickly removed from the guinea pigs and placed in a modified Tyrode solution, a solution which is known to those of skill in the art, containing one-half of the usual amount of magnesium ions.
Segments of ileum about 2 cm long were then cut and mounted in a 10-mL tissue bath containing the modified Tyrode solution. The solution was maintained at 37° C. and aerated with a gaseous mixture of 95% oxygen and 5% carbon dioxide.
Submaximal contractions of the ileum segments were then generated by injecting prostaglandin E2 into the bath, and detected isotonically. Data for a control prostaglandin E2 dose response curve plotting concentration of prostaglandin E2 versus number of contractions generated was then obtained by experimentally adjusting the dose of the prostaglandin E2 being injected into the tissue bath, in a manner known by those of skill in the art.
Solutions or suspensions containing an initial amount of a test compound in modified Tyrode solution ("test solutions/ suspensions") were then separately substituted for the tissue bath. […]
If the initial concentration of a test compound was determined to be "active," then varying concentrations of the test compound were then assayed.
The pA2 value (a statistical constant which is a common measure of expressing the potency of a particular drug as a competitive antagonist) was then calculated for the test compound by schild plot calculations, as described by H.O. Schild, "pA, A New Scale for the Measurement of Drug Antagonism," Br. J. Pharmacol, 2, 189 (1947), according to the following mathematical formula: […]
to quantitate the effectiveness of the test compound as a prostaglandin E2 antagonist.

[4] = system: stimulant actions of prostaglandins on isolated smooth muscle preparations; conditions: cited from earlier work
[5] = system: micturition reflex in rats; conditions: urethane-anesthetized rats; cited from earlier work

Compound: O=C(CCCCCl)NNC(=O)N1Cc2ccccc2Oc2ccc(Cl)cc21 [8-chlorodibenz[b,f][1,4]-oxazepine-10(11H)-carboxylic acid, 2-(5-chloro-1-oxopentyl)hydrazide]
antagonism of prostaglandins of the E series [1]: competitive antagonists of prostaglandins of the E series

Compound: CC(=O)NNC(=O)N1Cc2ccccc2Oc2ccc(Cl)cc21 [8-chlorodibenz[b,f][1,4]-oxazepine-10(11H-carboxylic acid, 2-acetylhydrazide]
antagonism of prostaglandins of the E series [1]: competitive antagonists of prostaglandins of the E series

Compound: CCS(=O)(=O)CCC(=O)NNC(=O)N1Cc2cc(OC)ccc2Oc2ccc(Cl)cc21 [Example 3, 8-chloro-2-methoxydibenz[b,f][1,4]oxazepine-10(11H)-carboxylic acid, 2-[3-(ethylsulfonyl)-1-oxopropyl]hydrazide]
rank order of potency in the Writhing Assay [2]: Example 4>Example 8>Example 7>Example 3

PGE antagonism in guinea pig ileum (activity) ([3]; guinea pig ileum segments, 37° C.): Active
Kb ([3]; guinea pig ileum segments, 37° C., Schild plot, read-out: PGE antagonism in guinea pig ileum (pA2) (converted)): 3.98 µM
Compound: CCS(=O)(=O)CCC(=O)NNC(=O)N1Cc2cc(O)ccc2Oc2ccc(Cl)cc21 [Example 4, 8-chloro-2-hydroxydibenz[b,f][1,4]oxazepine-10(11H)-carboxylic acid, 2-[3-(ethylsulfonyl)-1-oxopropyl]hydrazide]
activity as prostaglandin E2 antagonist, in words ([3]; guinea pig ileum): exhibits activity as a prostaglandin E2 antagonist
PBQ writhing assay, I.G. (activity) [2]: Active
PBQ writhing assay, S.C. (activity) [2]: Active
ED50 ([2]; Mus musculus, po, 0.5 h, intragastric, read-out: PBQ writhing assay ED50, I.G.): 12.6 mg/kg
rank order of potency in the Writhing Assay [2]: Example 4>Example 8>Example 7>Example 3; also recorded: the most potent compound of the invention tested in this assay

Compound: CCS(=O)(=O)CCC(=O)NNC(=O)N1Cc2ccc(OC)cc2Oc2ccc(Cl)cc21 [Example 7, 8-chloro-3-methoxydibenz[b,f][1,4]oxazepine-10(11H)-carboxylic acid, 2-[3-(ethylsulfonyl)-1-oxopropyl]hydrazide]
PBQ writhing assay, I.G. (activity) [2]: Active
rank order of potency in the Writhing Assay [2]: Example 4>Example 8>Example 7>Example 3

Compound: CCS(=O)(=O)CCC(=O)NNC(=O)N1Cc2ccc(O)cc2Oc2ccc(Cl)cc21 [Example 8]
PBQ writhing assay, I.G. (activity) [2]: Active
PBQ writhing assay, S.C. (activity) [2]: Active
rank order of potency in the Writhing Assay [2]: Example 4>Example 8>Example 7>Example 3

Compound: O=C(Cc1ccccc1)NNC(=O)N1Cc2ccccc2Oc2ccc(Cl)cc21 [SC-18637]
inhibition of stimulant actions of prostaglandins [4]: inhibit the stimulant actions of prostaglandins on isolated smooth muscle preparations

Compound: CC(=O)NNC(=O)N1Cc2ccccc2Oc2ccc(Cl)cc21 [SC-19220]
bladder capacity [5]: increased the bladder capacity
voiding efficiency of micturition [5]: reduced the voiding efficiency of micturition
inhibition of stimulant actions of prostaglandins [4]: inhibit the stimulant actions of prostaglandins on isolated smooth muscle preparations
